Each structure is given as a SMILES string. Bounds are passed on as bounds.

The text below walks through data of patent US20210387954A1, “OXADIAZOLES AS FUNGICIDES” (PI INDUSTRIES LIMITED, priority 2018, published 2021).

For one assay, the system named is Corynespora cassicola. Nature of the assay: Corynespora cassicola (leaf spot of tomato) in vitro radial growth test on Potato Dextrose Agar. It counts as cell-based. To be noted: 300 ppm; radial growth after seven days at 25° C., 70% relative humidity.
As for `O=S(=O)(Nc1ccc(Cc2noc(C(F)(F)F)n2)cc1)c1ccccc1` [Compound 68, N-(4-((5-(trifluoromethyl)-1,2,4-oxadiazol-3-yl)methyl)phenyl)benzenesulfonamide], the “control compared to the untreated check” value is listed as above 70%.

Another assay deals with Alternaria solani. Nature of the assay: Alternaria solani (early blight of tomato/potato) in vitro radial growth test on Potato Dextrose Agar. It counts as cell-based. The note with it: 168 h, radial growth after seven days at 25° C., 60% relative humidity, read-out: control compared to the untreated check.
With `O=C(Cc1ccccc1)Nc1ccc(Cc2noc(C(F)(F)F)n2)cc1` [Compound 6, 2-phenyl-N-(4-((5-(trifluoromethyl)-1,2,4-oxadiazol-3-yl)methyl)phenyl)acetamide], the inhibition of growth at 300 ppm is above 70%. Still for that read-out and setting: under `O=C(NCc1ccc(F)cc1)c1ccc(Cc2noc(C(F)(F)F)n2)cc1` [Compound 12, N-(4-fluorobenzyl)-4-((5-(trifluoromethyl)-1,2,4-oxadiazol-3-yl)methyl)benzamide] stands above 70%; under `Cc1ccc(C(C)NC(=O)c2ccc(Cc3noc(C(F)(F)F)n3)cc2)cc1` (stereo not drawn) [Compound 15, N-(1-(p-tolyl)ethyl)-4-((5-(trifluoromethyl)-1,2,4-oxadiazol-3-yl)methyl)benzamide], above 70%; under `O=C(NCc1cccnc1)c1ccc(Cc2noc(C(F)(F)F)n2)cc1` [Compound 16, N-(pyridin-3-ylmethyl)-4-((5-(trifluoromethyl)-1,2,4-oxadiazol-3-yl)methyl)benzamide], above 70%. Same read-out and setting: in the case of `O=C(Nc1cncc(Cl)c1)c1ccc(Cc2noc(C(F)(F)F)n2)cc1` [Compound 17, N-(5-chloropyridin-3-yl)-4-((5-(trifluoromethyl)-1,2,4-oxadiazol-3-yl)methyl)benzamide] it was above 70%; in that of `COc1ccccc1NC(=O)c1ccc(Cc2noc(C(F)(F)F)n2)cc1` [Compound 19, N-(2-methoxyphenyl)-4-((5-(trifluoromethyl)-1,2,4-oxadiazol-3-yl)methyl)benzamide], above 70%. Regarding `O=C(NCCN1CCOCC1)c1ccc(Cc2noc(C(F)(F)F)n2)cc1` [Compound 21, N-(2-morpholinoethyl)-4-((5-(trifluoromethyl)-1,2,4-oxadiazol-3-yl)methyl)benzamide], the inhibition of growth at 300 ppm is above 70%. The same measure, in the same setting: in the case of `O=C(Nc1cccc(Cl)c1)c1ccc(Cc2noc(C(F)(F)F)n2)cc1` [Compound 55, N-(3-chlorophenyl)-4-((5-(trifluoromethyl)-1,2,4-oxadiazol-3-yl)methyl)benzamide] it was above 70%; in that of `Cc1cccc(NC(=S)c2ccc(Cc3noc(C(F)(F)F)n3)cc2)c1` [Compound 64, N-(m-tolyl)-4-((5-(trifluoromethyl)-1,2,4-oxadiazol-3-yl)methyl)benzothioamide], above 70%.

The subject of a further assay is Phakopsora pachyrhizi. Nature of the assay: Phakopsora pachyrhizi test in soybean (greenhouse, preventive). It counts as in vivo. To be noted: 24 h, soybean plants sprayed one day before inoculation, read-out: control compared to the untreated check (efficacy from disease severity rating). On the procedure: Compounds were dissolved in 2% DMSO/Acetone and then diluted with water containing emulsifier to the desired test concentration. To test the preventive activity of compounds, healthy young soybean plants, raised in the greenhouse, were sprayed with the active compound solution at the stated application rates inside spray cabinets using hallowcone nozzles. One day after treatment, the plants were inoculated with a suspension containing 2.1×10^6 Phakopsora pachyrhizi spores. The inoculated plants were then kept in the greenhouse chamber at 25° C. temperature and 90% relative humidity for disease expression. A visual assessment of the compound's performance was carried out by rating the disease severity (0-100% scale) on treated plants on 3, 7, 10 and 15 days after application. Efficacy (% control) of the compounds was calculated by comparing the disease rating in the treatment with the one of the untreated control. The treated plants were also assessed for plant compatibility by recording symptoms like necrosis, chlorosis and stunting.
For the compound `O=C(Nc1ccc(Cc2noc(C(F)(F)F)n2)cc1)c1ccccc1` [Compound 2, N-(4-((5-(trifluoromethyl)-1,2,4-oxadiazol-3-yl)methyl)phenyl)benzamide], the pest or weed control at 500 ppm was above 70%. Same read-out and setting: under `O=C(Nc1ccc(Cc2noc(C(F)(F)F)n2)cc1)c1ccccn1` [Compound 3, N-(4-((5-(trifluoromethyl)-1,2,4-oxadiazol-3-yl)methyl)phenyl)picolinamide] stands above 70%; under `O=C(Nc1ccc(Cc2noc(C(F)(F)F)n2)cc1)c1cccnc1` [Compound 4, N-(4-((5-(trifluoromethyl)-1,2,4-oxadiazol-3-yl)methyl)phenyl)nicotinamide], above 70%; under `O=C(Nc1ccc(Cc2noc(C(F)(F)F)n2)cc1)c1ccncc1` [Compound 5, N-(4-((5-(trifluoromethyl)-1,2,4-oxadiazol-3-yl)methyl)phenyl)isonicotinamide], above 70%. The same measure, in the same setting: under `O=C(Cc1ccccc1)Nc1ccc(Cc2noc(C(F)(F)F)n2)cc1` [Compound 6, 2-phenyl-N-(4-((5-(trifluoromethyl)-1,2,4-oxadiazol-3-yl)methyl)phenyl)acetamide] stands above 70%; under `O=C(Nc1ccc(Cc2noc(C(F)(F)F)n2)cc1)c1ccc(C(F)(F)F)cc1` [Compound 8, 4-(trifluoromethyl)-N-(4-((5-(trifluoromethyl)-1,2,4-oxadiazol-3-yl)methyl)phenyl)benzamide], above 70%; under `O=C(Nc1ccc(Cc2noc(C(F)(F)F)n2)cc1)c1ccc(F)cc1` [Compound 9, 4-fluoro-N-(4-((5-(trifluoromethyl)-1,2,4-oxadiazol-3-yl)methyl)phenyl)benzamide], above 70%.

With `O=C(Nc1ccc(Cc2noc(C(F)(F)F)n2)cc1)c1ccc(Cl)cc1` [Compound 10, 4-chloro-N-(4-((5-(trifluoromethyl)-1,2,4-oxadiazol-3-yl)methyl)phenyl)benzamide], the pest or weed control at 500 ppm is above 70%. For the compound `O=C(NCc1ccc(F)cc1)c1ccc(Cc2noc(C(F)(F)F)n2)cc1` [Compound 12, N-(4-fluorobenzyl)-4-((5-(trifluoromethyl)-1,2,4-oxadiazol-3-yl)methyl)benzamide], the pest or weed control at 500 ppm was above 70%.

For the compound `O=C(c1ccc(Cc2noc(C(F)(F)F)n2)cc1)N1CCOCC1` [Compound 13, morpholino(4-((5-(trifluoromethyl)-1,2,4-oxadiazol-3-yl)methyl)phenyl)methanone], the pest or weed control at 500 ppm is above 70%.

As to `COc1ccc(Cl)c(NC(=O)c2ccc(Cc3noc(C(F)(F)F)n3)cc2)c1` [Compound 18, N-(2-chloro-5-methoxyphenyl)-4-((5-(trifluoromethyl)-1,2,4-oxadiazol-3-yl)methyl)benzamide], the pest or weed control at 500 ppm is above 70%. On to `O=C(Nc1ccc(C(=O)c2noc(C(F)(F)F)n2)cc1)c1ccncc1` [Compound 27, N-(4-(5-(trifluoromethyl)-1,2,4-oxadiazole-3-carbonyl)phenyl)isonicotinamide], for which the pest or weed control at 500 ppm was above 70%. Take `CC(C)(C)OC(=O)Nc1ccc(C(=O)c2noc(C(F)(F)F)n2)cc1` [Compound 29, tert-butyl (4-(5-(trifluoromethyl)-1,2,4-oxadiazole-3-carbonyl)phenyl)carbamate]: the pest or weed control at 500 ppm is above 70%. Same read-out and setting: in the case of `CC(C)(C)OC(=O)Nc1ccc(C(F)(F)c2noc(C(F)(F)F)n2)cc1` [Compound 30, tert-butyl (4-(difluoro(5-(trifluoromethyl)-1,2,4-oxadiazol-3-yl)methyl)phenyl)carbamate] it was above 70%; in that of `Cc1ccc(C(=O)Nc2ccc(C(F)(F)c3noc(C(F)(F)F)n3)cc2)cc1` [Compound 38, N-(4-(difluoro(5-(trifluoromethyl)-1,2,4-oxadiazol-3-yl)methyl)phenyl)-4-methylbenzamide], above 70%; in that of `CNC(=O)c1ccc(Cc2noc(C(F)(F)F)n2)cc1` [Compound 40, N-methyl-4-((5-(trifluoromethyl)-1,2,4-oxadiazol-3-yl)methyl)benzamide], above 70%.

Take `COCCNC(=O)c1ccc(Cc2noc(C(F)(F)F)n2)cc1` [Compound 42, N-(2-methoxyethyl)-4-((5-(trifluoromethyl)-1,2,4-oxadiazol-3-yl)methyl)benzamide]: the pest or weed control at 500 ppm was above 70%. Still for that read-out and setting: under `O=C(c1ccc(Cc2noc(C(F)(F)F)n2)cc1)N1CCCC1` [Compound 45, pyrrolidin-1-yl(4-((5-(trifluoromethyl)-1,2,4-oxadiazol-3-yl)methyl)phenyl)methanone] stands above 70%.

`COCCN(C)C(=O)c1ccc(Cc2noc(C(F)(F)F)n2)cc1` [Compound 46, N-(2-methoxyethyl)-N-methyl-4-((5-(trifluoromethyl)-1,2,4-oxadiazol-3-yl)methyl)benzamide]: the pest or weed control at 500 ppm is above 70%. Still for that read-out and setting: under `O=C(NCC1CC1)c1ccc(Cc2noc(C(F)(F)F)n2)cc1` [Compound 47, N-(cyclopropylmethyl)-4-((5-(trifluoromethyl)-1,2,4-oxadiazol-3-yl)methyl)benzamide] stands above 70%; under `CCN(C)C(=O)c1ccc(Cc2noc(C(F)(F)F)n2)cc1` [Compound 48, N-ethyl-N-methyl-4-((5-(trifluoromethyl)-1,2,4-oxadiazol-3-yl)methyl)benzamide], above 70%. Same read-out and setting: under `C=CCN(C)C(=O)c1ccc(Cc2noc(C(F)(F)F)n2)cc1` [Compound 49, N-allyl-N-methyl-4-((5-(trifluoromethyl)-1,2,4-oxadiazol-3-yl)methyl)benzamide] stands above 70%. On the same count and under the same terms, in the case of `C#CCNC(=O)c1ccc(Cc2noc(C(F)(F)F)n2)cc1` [Compound 50, N-(prop-2-yn-1-yl)-4-((5-(trifluoromethyl)-1,2,4-oxadiazol-3-yl)methyl)benzamide] it was above 70%; in that of `Fc1ccc(NC(=S)c2ccc(Cc3noc(C(F)(F)F)n3)cc2)cc1` [Compound 67, N-(4-fluorophenyl)-4-((5-(trifluoromethyl)-1,2,4-oxadiazol-3-yl)methyl)benzothioamide], above 70%. For the compound `O=S(=O)(Nc1ccc(Cc2noc(C(F)(F)F)n2)cc1)c1ccccc1` [Compound 68, N-(4-((5-(trifluoromethyl)-1,2,4-oxadiazol-3-yl)methyl)phenyl)benzenesulfonamide], the pest or weed control at 500 ppm was above 70%.

Another assay deals with Colletotrichum capsici. Description: Colletotrichum capsici (anthracnose) in vitro radial growth test on Potato Dextrose Agar. It counts as cell-based. The note with it: 300 ppm; radial growth after seven days at 25° C., 60% relative humidity.
With `O=C(Cc1ccccc1)Nc1ccc(Cc2noc(C(F)(F)F)n2)cc1` [Compound 6, 2-phenyl-N-(4-((5-(trifluoromethyl)-1,2,4-oxadiazol-3-yl)methyl)phenyl)acetamide], the “control compared to the untreated check” value is above 70%.
